According to ChEMBL document CHEMBL1201862, “PubChem BioAssay data set” (2004):
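Where inhibition never reached the appropriate level, the endpoint shown equals the highest concentration tested. Otherwise, values were interpolated linearly from a five-concentration, 48-hour dose response in 96-well plates. GI50 marks 50% less growth.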 Active and inactive are the calls of the source. Rule as the data show it: active = GI50 up to about 1.1 µM and inactive = higher.

Assays:
Assay in all cases: DTP human tumour cell line panel, 48 h
A549 = system: A549
COLO 205 = system: COLO 205
EKVX = system: EKVX
HCC 2998 = system: HCC 2998
HT-29 = system: HT-29
K562 = system: K562
KM12 = system: KM12
LOX IMVI = system: LOX IMVI
NCI-H23 = system: NCI-H23
NCI-H522 = system: NCI-H522
OVCAR-3 = system: OVCAR-3
OVCAR-8 = system: OVCAR-8
SF-268 = system: SF-268
SF-295 = system: SF-295
SF-539 = system: SF-539
SK-MEL-5 = system: SK-MEL-5
SK-OV-3 = system: SK-OV-3
SNB-75 = system: SNB-75
SW-620 = system: SW-620
RXF 393 = system: RXF 393

Measured: GI50

COc1cc(/C=C(/C#N)C(N)=O)ccc1O
inactive: A549 > 100 µM | COLO 205 > 100 µM | EKVX > 100 µM | HCC 2998 > 60.5 µM | HT-29 > 100 µM | K562 > 100 µM | KM12 > 100 µM | LOX IMVI > 100 µM | NCI-H23 > 100 µM | NCI-H522 > 100 µM | OVCAR-3 > 100 µM | OVCAR-8 > 100 µM | SF-268 > 100 µM | SF-295 > 100 µM | SF-539 > 100 µM | SK-MEL-5 > 22.2 µM | SK-OV-3 > 100 µM | SNB-75 > 50.1 µM | SW-620 > 100 µM

O=C1C(Cl)N(c2ccc(Cl)cc2Cl)C1c1c[nH]c2ccccc12 (configuration not stated)
inactive: A549 > 100 µM | COLO 205 > 100 µM | EKVX 54 µM | HT-29 > 100 µM | K562 > 100 µM | KM12 > 100 µM | NCI-H23 92.3 µM | NCI-H522 > 100 µM | OVCAR-3 78.3 µM | OVCAR-8 > 100 µM | RXF 393 74 µM | SF-268 > 100 µM | SF-295 > 100 µM | SF-539 > 100 µM | SK-MEL-5 > 100 µM | SK-OV-3 > 100 µM | SNB-75 6.49 µM | SW-620 > 100 µM

COc1nc(N)c(C(=O)CCl)c(=O)n1C
inactive: A549 18 µM | COLO 205 10.6 µM | EKVX 15.1 µM | HCC 2998 9.68 µM | HT-29 16 µM | K562 8.17 µM | KM12 14.3 µM | LOX IMVI 5.28 µM | NCI-H23 > 10 µM | OVCAR-8 19 µM | RXF 393 7.35 µM | SF-268 19.1 µM | SF-295 15.2 µM | SF-539 18 µM | SK-MEL-5 15.1 µM | SNB-75 13.3 µM | SW-620 12.4 µM

CC1(C23CC4CC(CC(C4)C2)C3)n2c(=O)n(-c3ccccc3)c(=O)n2C1(C)C12CC3CC(CC(C3)C1)C2 (configuration not stated)
inactive: A549 > 100 µM | COLO 205 > 100 µM | EKVX 91.2 µM | HT-29 > 100 µM | K562 > 100 µM | KM12 > 100 µM | NCI-H23 > 100 µM | OVCAR-3 > 100 µM | OVCAR-8 > 100 µM | SF-268 > 100 µM | SF-295 > 100 µM | SF-539 > 100 µM | SK-MEL-5 > 100 µM | SK-OV-3 > 100 µM | SNB-75 74.1 µM | SW-620 > 100 µM

COc1ccc(C(=O)c2c(-c3ccccc3NC(=O)C(F)(F)F)[nH]c3ccccc23)cc1
inactive: A549 5.66 µM | COLO 205 4.05 µM | EKVX 11.8 µM | HCC 2998 3.4 µM | HT-29 3.97 µM | K562 5.65 µM | KM12 3.88 µM | LOX IMVI 4.35 µM | NCI-H23 11.7 µM | NCI-H522 7.33 µM | OVCAR-3 3.83 µM | OVCAR-8 6.19 µM | SF-268 12.8 µM | SF-295 12.1 µM | SF-539 1.94 µM | SK-MEL-5 8.95 µM | SK-OV-3 14.6 µM | SNB-75 2.47 µM | SW-620 4.06 µM

CC1=C2C(O)C(C(C)C(=O)NCC(C)C)CCC2(C)C=CC1=O (configuration not stated)
inactive: A549 > 100 µM | COLO 205 > 100 µM | EKVX > 100 µM | HCC 2998 > 100 µM | HT-29 > 100 µM | K562 > 100 µM | KM12 > 100 µM | LOX IMVI > 100 µM | NCI-H23 > 100 µM | NCI-H522 > 100 µM | OVCAR-3 > 100 µM | OVCAR-8 > 100 µM | RXF 393 > 100 µM | SF-268 > 100 µM | SF-295 > 100 µM | SF-539 > 100 µM | SK-MEL-5 > 100 µM | SNB-75 > 100 µM | SW-620 > 100 µM

COc1cccc(NC(=O)N/C(=C/c2ccc(N(CCC#N)CCC#N)cc2)NC(=O)c2cc([N+](=O)[O-])ccc2Cl)c1
inactive: A549 > 100 µM | COLO 205 > 100 µM | EKVX > 100 µM | K562 > 100 µM | KM12 > 100 µM | LOX IMVI 71.4 µM | NCI-H23 > 100 µM | NCI-H522 26.5 µM | OVCAR-3 > 100 µM | OVCAR-8 > 100 µM | RXF 393 > 100 µM | SF-268 > 100 µM | SF-295 > 100 µM | SF-539 > 100 µM | SK-MEL-5 > 100 µM | SK-OV-3 > 100 µM

COc1cccc(C2c3cc4c(cc3OC(N3CCOCC3)C2C)OCO4)c1OC (configuration not stated)
inactive: A549 9.98 µM | COLO 205 9.04 µM | EKVX 18.1 µM | HCC 2998 10.4 µM | HT-29 2.96 µM | K562 2.07 µM | KM12 5.68 µM | LOX IMVI 3.06 µM | NCI-H23 14.8 µM | NCI-H522 4.26 µM | OVCAR-3 3.04 µM | OVCAR-8 5.68 µM | SF-268 9.59 µM | SF-295 2.84 µM | SF-539 10.6 µM | SK-MEL-5 9.59 µM | SNB-75 4.88 µM | SW-620 5.4 µM
